Assay results from PubChem BioAssay (NCI).
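These data come from cells grown in 96-well plates and exposed to compound for 48 hours at five concentrations. The concentration for full growth arrest is given as TGI.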

Experiments:
Assay in all cases: DTP human tumour cell line panel, 48 h
NCI-H23 lung = test system: NCI-H23 lung
NCI-H226 lung = test system: NCI-H226 lung
CAKI-1 renal = test system: CAKI-1 renal
A549 NSCLC = test system: A549 NSCLC
MALME-3M melanoma = test system: MALME-3M melanoma
TK-10 renal = test system: TK-10 renal
SK-OV-3 ovarian = test system: SK-OV-3 ovarian
PC-3 prostate = test system: PC-3 prostate
SW-620 colon = test system: SW-620 colon
UACC-62 melanoma = test system: UACC-62 melanoma
RXF 393 renal = test system: RXF 393 renal
CCRF-CEM leukemia = test system: CCRF-CEM leukemia
HCT-15 colon = test system: HCT-15 colon
MOLT-4 leukemia = test system: MOLT-4 leukemia
NCI-H460 lung = test system: NCI-H460 lung
HOP-92 NSCLC = test system: HOP-92 NSCLC
SF-539 CNS = test system: SF-539 CNS
SK-MEL-2 melanoma = test system: SK-MEL-2 melanoma
EKVX NSCLC = test system: EKVX NSCLC
UO-31 renal = test system: UO-31 renal
SNB-75 CNS = test system: SNB-75 CNS
A498 renal = test system: A498 renal
IGROV1 ovarian = test system: IGROV1 ovarian
SR leukemia = test system: SR leukemia
UACC-257 melanoma = test system: UACC-257 melanoma
NCI-H522 lung = test system: NCI-H522 lung
SF-295 CNS = test system: SF-295 CNS
LOX IMVI melanoma = test system: LOX IMVI melanoma
MCF7 breast = test system: MCF7 breast
SK-MEL-28 melanoma = test system: SK-MEL-28 melanoma
HOP-62 NSCLC = test system: HOP-62 NSCLC
OVCAR-5 ovarian = test system: OVCAR-5 ovarian
HCC-2998 colon = test system: HCC-2998 colon
MDA-MB-435 = test system: MDA-MB-435
SF-268 CNS = test system: SF-268 CNS
OVCAR-4 ovarian = test system: OVCAR-4 ovarian
KM12 colon = test system: KM12 colon
SNB-19 CNS = test system: SNB-19 CNS
U251 CNS = test system: U251 CNS
DU-145 prostate = test system: DU-145 prostate
OVCAR-8 ovarian = test system: OVCAR-8 ovarian
NCI/ADR-RES ovarian = test system: NCI/ADR-RES ovarian
RPMI-8226 leukemia = test system: RPMI-8226 leukemia
T-47D breast = test system: T-47D breast
HS 578T breast = test system: HS 578T breast
ACHN renal = test system: ACHN renal
HL-60(TB) leukemia = test system: HL-60(TB) leukemia
SK-MEL-5 melanoma = test system: SK-MEL-5 melanoma
MDA-MB-231 breast = test system: MDA-MB-231 breast
K-562 leukemia = test system: K-562 leukemia
OVCAR-3 ovarian = test system: OVCAR-3 ovarian
HT29 colon = test system: HT29 colon
MDA-N = test system: MDA-N
M14 melanoma = test system: M14 melanoma
COLO 205 colon = test system: COLO 205 colon
786-0 renal = test system: 786-0 renal
HCT-116 colon = test system: HCT-116 colon
SN12C renal = test system: SN12C renal

C[C@@H](c1ccccc1)C(CC#N)[C@H]1CCC[C@]1(O)C#Cc1ccc2c(c1)OCO2 (some centres undefined)
TGI (NCI-H23 lung): 35.5 µM
TGI (NCI-H226 lung): 33.1 µM
TGI (CAKI-1 renal): 30.8 µM
TGI (A549 NSCLC): 29.8 µM
TGI (MALME-3M melanoma): 33.8 µM
TGI (TK-10 renal): 29.6 µM
TGI (SK-OV-3 ovarian): 34.6 µM
TGI (PC-3 prostate): 31.1 µM
TGI (SW-620 colon): 33.2 µM
TGI (UACC-62 melanoma): 32.7 µM
TGI (RXF 393 renal): 28.6 µM
TGI (CCRF-CEM leukemia): 35.5 µM
TGI (HCT-15 colon): 32.3 µM
TGI (MOLT-4 leukemia): 25.2 µM
TGI (NCI-H460 lung): 31.3 µM
TGI (HOP-92 NSCLC): 28.4 µM
TGI (SF-539 CNS): 24.1 µM
TGI (SK-MEL-2 melanoma): 32.7 µM
TGI (EKVX NSCLC): 35.4 µM
TGI (UO-31 renal): 27.7 µM
TGI (SNB-75 CNS): 32 µM
TGI (A498 renal): 34.9 µM
TGI (IGROV1 ovarian): 33.9 µM
TGI (SR leukemia): 46.6 µM
TGI (UACC-257 melanoma): 34.6 µM
TGI (NCI-H522 lung): 32.4 µM
TGI (SF-295 CNS): 32.4 µM
TGI (LOX IMVI melanoma): 39.5 µM
TGI (MCF7 breast): 41.3 µM
TGI (SK-MEL-28 melanoma): 30.1 µM
TGI (HOP-62 NSCLC): 31.3 µM
TGI (OVCAR-5 ovarian): 30.8 µM
TGI (HCC-2998 colon): 30.3 µM
TGI (MDA-MB-435): 31.3 µM
TGI (SF-268 CNS): 38.8 µM
TGI (OVCAR-4 ovarian): 32.6 µM
TGI (KM12 colon): 31.6 µM
TGI (SNB-19 CNS): 29.8 µM
TGI (U251 CNS): 32.1 µM
TGI (DU-145 prostate): 31.6 µM
TGI (OVCAR-8 ovarian): 32.7 µM
TGI (NCI/ADR-RES ovarian): 33.8 µM
TGI (RPMI-8226 leukemia): 62.5 µM
TGI (T-47D breast): 32 µM
TGI (HS 578T breast): 43.7 µM
TGI (ACHN renal): 30.8 µM
TGI (HL-60(TB) leukemia): 43.8 µM
TGI (SK-MEL-5 melanoma): 32.8 µM
TGI (MDA-MB-231 breast): 33.7 µM
TGI (K-562 leukemia): 47.8 µM
TGI (OVCAR-3 ovarian): 29.2 µM
TGI (HT29 colon): 28.9 µM
TGI (MDA-N): 30.4 µM
TGI (M14 melanoma): 30.9 µM
TGI (COLO 205 colon): 33.1 µM
TGI (786-0 renal): 31.3 µM

CC1=NN(c2cccc(Cl)c2)C2(C1=Cc1ccccc1)C(Cl)C(=O)N2c1nc2ccccc2s1 (centres undefined)
TGI (NCI-H23 lung): 31.5 µM
TGI (NCI-H226 lung): 67.8 µM
TGI (CAKI-1 renal): 41.9 µM
TGI (TK-10 renal): > 100 µM
TGI (SK-OV-3 ovarian): 52.3 µM
TGI (PC-3 prostate): 37.6 µM
TGI (SW-620 colon): 42.4 µM
TGI (RXF 393 renal): 28 µM
TGI (CCRF-CEM leukemia): > 100 µM
TGI (HCT-15 colon): 31.5 µM
TGI (MOLT-4 leukemia): 85.9 µM
TGI (NCI-H460 lung): 28.5 µM
TGI (HOP-92 NSCLC): 31.6 µM
TGI (SF-539 CNS): > 100 µM
TGI (SK-MEL-2 melanoma): 38.5 µM
TGI (EKVX NSCLC): > 100 µM
TGI (UO-31 renal): 31.9 µM
TGI (A498 renal): 42.8 µM
TGI (IGROV1 ovarian): 43.7 µM
TGI (SR leukemia): 67.3 µM
TGI (UACC-257 melanoma): 74.7 µM
TGI (NCI-H522 lung): 36 µM
TGI (SF-295 CNS): 52.3 µM
TGI (LOX IMVI melanoma): 64 µM
TGI (MCF7 breast): 70.6 µM
TGI (HCT-116 colon): 30.3 µM
TGI (SK-MEL-28 melanoma): > 100 µM
TGI (HOP-62 NSCLC): 45.3 µM
TGI (OVCAR-5 ovarian): 55.8 µM
TGI (HCC-2998 colon): 31.1 µM
TGI (MDA-MB-435): 41.1 µM
TGI (SF-268 CNS): 97.6 µM
TGI (OVCAR-4 ovarian): 64.7 µM
TGI (KM12 colon): 33.7 µM
TGI (U251 CNS): 29.7 µM
TGI (DU-145 prostate): 33.2 µM
TGI (OVCAR-8 ovarian): > 100 µM
TGI (NCI/ADR-RES ovarian): 48.7 µM
TGI (RPMI-8226 leukemia): > 100 µM
TGI (T-47D breast): 59.9 µM
TGI (HS 578T breast): > 100 µM
TGI (ACHN renal): 42.4 µM
TGI (HL-60(TB) leukemia): 66.4 µM
TGI (SK-MEL-5 melanoma): 32.5 µM
TGI (MDA-MB-231 breast): 51.3 µM
TGI (K-562 leukemia): > 100 µM
TGI (OVCAR-3 ovarian): 40.6 µM
TGI (HT29 colon): 40.5 µM
TGI (MDA-N): 41.3 µM
TGI (M14 melanoma): 46.2 µM
TGI (786-0 renal): 32.9 µM

Cc1ccc(C(=O)CC(O)(C(F)(F)F)C(F)(F)F)cc1[N+](=O)[O-]
TGI (NCI-H23 lung): 23.7 µM
TGI (NCI-H226 lung): 38.7 µM
TGI (CAKI-1 renal): 4.58 µM
TGI (A549 NSCLC): 33 µM
TGI (MALME-3M melanoma): 31.8 µM
TGI (TK-10 renal): 33.3 µM
TGI (SK-OV-3 ovarian): 32.2 µM
TGI (PC-3 prostate): 27.2 µM
TGI (SW-620 colon): 42.8 µM
TGI (UACC-62 melanoma): 21.9 µM
TGI (RXF 393 renal): 27.1 µM
TGI (HCT-15 colon): 13.6 µM
TGI (MOLT-4 leukemia): 68.5 µM
TGI (NCI-H460 lung): 25.1 µM
TGI (HOP-92 NSCLC): 22.3 µM
TGI (SF-539 CNS): 31.7 µM
TGI (SK-MEL-2 melanoma): 34 µM
TGI (EKVX NSCLC): 31.7 µM
TGI (UO-31 renal): 10.6 µM
TGI (SNB-75 CNS): 33.2 µM
TGI (A498 renal): 35.8 µM
TGI (IGROV1 ovarian): 11.2 µM
TGI (SR leukemia): 14.3 µM
TGI (UACC-257 melanoma): 9.39 µM
TGI (NCI-H522 lung): 1.19 µM
TGI (SF-295 CNS): 19.7 µM
TGI (LOX IMVI melanoma): 5.22 µM
TGI (MCF7 breast): 11 µM
TGI (HCT-116 colon): 12.1 µM
TGI (SK-MEL-28 melanoma): 23.4 µM
TGI (HOP-62 NSCLC): 29.2 µM
TGI (OVCAR-5 ovarian): 33.4 µM
TGI (HCC-2998 colon): 12.9 µM
TGI (MDA-MB-435): 22.5 µM
TGI (SF-268 CNS): 31.4 µM
TGI (OVCAR-4 ovarian): 30.7 µM
TGI (KM12 colon): 6.31 µM
TGI (SNB-19 CNS): 22.6 µM
TGI (U251 CNS): 31.2 µM
TGI (DU-145 prostate): 13.7 µM
TGI (OVCAR-8 ovarian): 25.9 µM
TGI (NCI/ADR-RES ovarian): 44.2 µM
TGI (RPMI-8226 leukemia): 69.4 µM
TGI (T-47D breast): 38.9 µM
TGI (HS 578T breast): 42.6 µM
TGI (ACHN renal): 28.9 µM
TGI (HL-60(TB) leukemia): 4.41 µM
TGI (SK-MEL-5 melanoma): 30.8 µM
TGI (MDA-MB-231 breast): 21.5 µM
TGI (K-562 leukemia): > 28.2 µM
TGI (OVCAR-3 ovarian): 6.44 µM
TGI (HT29 colon): 4.12 µM
TGI (MDA-N): 28.2 µM
TGI (M14 melanoma): 17.9 µM
TGI (SN12C renal): 25 µM
TGI (COLO 205 colon): 36.5 µM
TGI (786-0 renal): 25.9 µM
